# Measured values taken from patent US6001801A, “Cyclic peptide analogs of somatostatin” (Biomeasure, Inc., priority 1998, dated 1999).
# Bridge positions count the residues as written; N and C are the ends. Square brackets hold non-standard residues; d marks the D form. Peptide text beside a SMILES is read from it.
# Biological target: T1, human SSTR-5 (Homo sapiens, UniProt P35346)
# T1 construct: expressed in transfected cells; host or cells: CHO-K1
# Assay: Human SSTR-5 binding assay ([125I-Tyr11]somatostatin-14 displacement, membranes of transfected CHO-K1 cells)
# Conditions: ratio greater than one = more selective for SSTR-5 than for SSTR-2
# Method: (2) Human SSTR-5 Binding Assay
# CHO-K1 cells were transfected with the human SSTR-5 cDNA, described in Yamada, et al., Biochem Biophys. Res. Commun., 195-844 (1993) using standard techniques known in the molecular biological art. See, e.g., Patel, et al., Biochem. Biophys. Res. Comm. 198:605 (1994). Crude membranes were prepared by homogenization of the human SSTR-5 transfected CHO-K1 cells in 20 ml of ice-cold 50 mM Tris-HCl with a POLYTRON™ homogenizer (setting 6, 15 sec). Buffer was added to obtain a final volume of 40 ml, and the homogenate was centrifuged in a SORVAL™ SS-34 rotor at 39,000 g for 10 min at 0-4° C. The resulting supernatant was decanted and discarded. The pellet was rehomogenized in ice-cold buffer, diluted, and centrifuged as before. The final pellet was resuspended in the 10 mM Tris HCl and held on ice for the receptor binding assay.
# The final assay volume was 0.3 ml. The incubations were terminated by rapid filtration through GF/C filters (pre-soaked in 0.3% polyethylenimine for 30 min) using a Brandel filtration manifold. Each tube and filter was then washed three times with 5 ml aliquots of ice-cold buffer.
# T1 sequence (P35346 whole entry): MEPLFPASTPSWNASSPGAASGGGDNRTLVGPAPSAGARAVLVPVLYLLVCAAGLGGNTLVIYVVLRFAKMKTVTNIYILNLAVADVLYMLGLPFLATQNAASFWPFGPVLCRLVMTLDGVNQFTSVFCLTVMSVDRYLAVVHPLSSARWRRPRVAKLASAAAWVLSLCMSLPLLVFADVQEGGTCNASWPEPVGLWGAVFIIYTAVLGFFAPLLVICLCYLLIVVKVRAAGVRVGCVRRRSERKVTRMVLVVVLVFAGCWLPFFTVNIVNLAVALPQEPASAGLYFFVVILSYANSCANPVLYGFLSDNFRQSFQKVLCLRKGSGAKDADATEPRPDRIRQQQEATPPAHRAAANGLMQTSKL
row,SSTR-2/SSTR-5 (ratio of the Ki's for human SSTR-2 and human SSTR-5),Molecule
1,40.2,H2 -c[Cys-Phe-Phe-D-Trp-Lys-Thr-Phe-Cys] -NH2 [Analog I]
2,53.1,H2 -c[Cys-Asn-Phe-Phe-D-Trp-Lys-Thr-Phe-Cys]-NH2 [Analog V]

# The next lines start with the molecule.
row,Molecule,SSTR-2/SSTR-5 (ratio of the Ki's for human SSTR-2 and human SSTR-5)
1,"NCCCC[C@@H]1NC(=O)[C@@H](Cc2c[nH]c3ccccc23)NC(=O)[C@H](Cc2ccccc2)NC(=O)[C@H](Cc2ccccc2)NC(=O)[C@@H](N)CSSC[C@@H](C(N)=O)NC(=O)[C@H](Cc2ccccc2)NC(=O)[C@H](CO)NC1=O [Analog IV, H2 -c[Cys-Phe-Phe-D-Trp-Lys-Ser-Phe-Cys] -NH2] (H-CFF[dW]KSFC-NH2; disulfide 1-8)",20.8
2,"NCCCC[C@@H]1NC(=O)[C@@H](Cc2c[nH]c3ccccc23)NC(=O)[C@H](Cc2c[nH]c3ccccc23)NC(=O)[C@H](Cc2ccccc2)NC(=O)[C@@H](N)CSSC[C@@H](C(N)=O)NC(=O)[C@H](Cc2ccccc2)NC(=O)[C@H](CO)NC1=O [Analog III, H2 -c[Cys-Phe-Trp-D-Trp-Lys-Ser-Phe-Cys] -NH2] (H-CFW[dW]KSFC-NH2; disulfide 1-8)",12.1
3,"C[C@@H](O)[C@@H]1NC(=O)[C@H](CCCCN)NC(=O)[C@@H](Cc2c[nH]c3ccccc23)NC(=O)[C@H](Cc2ccccc2)NC(=O)[C@H](Cc2ccccc2)NC(=O)[C@H](N)CSSC[C@@H](C(N)=O)NC(=O)[C@H](Cc2ccccc2)NC1=O [Analog II, H2 -c[D-Cys-Phe-Phe-D-Trp-Lys-Thr-Phe-Cys] -NH2] (H-[dC]FF[dW]KTFC-NH2; disulfide 1-8)",4.94
